Data reported in patent US20260184675A1, “CHIRAL ISOMERIC SULFITE COMPOUND AND APPLICATION THEREOF” (Chengdu Hanova BioSciences Co., Ltd, priority 2024, published 2026).

Test system: eggs of Panonychus citri
Assay: Effect on hatching of eggs of Panonychus citri, leaf disc method
Type: in vivo
Conditions: 1 ppm; for Hatching rate (%), Replicate 1 / Hatching rate (%), Replicate 2 / Hatching rate (%), Replicate 3 / Number of hatched larvae 5 days after insecticide delivery, Replicate 1 / Number of hatched larvae 5 days after insecticide delivery, Replicate 2 / Number of hatched larvae 5 days after insecticide delivery, Replicate 3: Panonychus citri eggs; for Hatching rate (%), Replicate 1 / Hatching rate (%), Replicate 2 / Hatching rate (%), Replicate 3: 5 days after delivery; for Number of hatched larvae 5 days after insecticide delivery, Replicate 1 / Number of hatched larvae 5 days after insecticide delivery, Replicate 2 / Number of hatched larvae 5 days after insecticide delivery, Replicate 3: leaf disc
Method: • (1) Preparation of leaf discs containing eggs: 20 female adult mites of Tetranychus cinnabarinus were transferred onto leaf discs of Vicia faba with a diameter of 2.0 cm (with wetted filter paper at the bottom), then covered it with a lidded culture dish and cultivated under moisturizing conditions, the adult mites were removed within 36 hours and microscopic examination and counting were performed on leaf discs containing eggs. • (2) Investigation of egg population base: Before pesticide soaking, a microscopic examination was conducted on the egg basic number of each leaf disc, with 2 replicates set for each treatment. • (3) Pesticide soaking treatment: The leaf butterflies loaded with mite eggs were soaked in clear water and sulfite compounds for 10 seconds, respectively, then taken out and cultivated under moisturizing conditions. Each treatment should be repeated for no less than 3 times. • (4) Cultivation and observation: The […] were cultivated under normal conditions. Five days after insecticide delivery, the hatching status of mite eggs was investigated. • Note: The temperature and humidity conditions of the constant temperature and humidity incubator after the treatment should be controlled so as to avoid excessive temperature differences, which may cause generation and dripping of condensate water in the culture dish, resulting in abnormal death of eggs due to soaking in water; it is also necessary to ensure sufficient strong ambient light, without directing irradiating the leaves. • (5) Survey of Results: The experimental materials of each treatment group were regularly hydrated and moisturized, and the hatching of eggs was observed. On the 7th day after insecticide delivery, the number of hatched eggs for each treatment was recorded, and the survey of results was recorded in the original notebook. According to the experimental requirements and characteristics of agents, the survey time can be shortened or extended.
• 1) Surveying and recording the number of hatched eggs for each treatment. • 2) Photographing and recording whether there was any pesticide damage to the leaf discs of Vicia faba. • 3) Recording the developmental status of experimental mite eggs, behavior status of nymph mites, including abnormal phenomena such as delayed or stopped development of mite eggs, difficulty in breaking hull for nymph mites, or painful struggles after hatching, etc. • (6) Calculation method: Based on the survey data, the prevention and control effect of each treatment was calculated according to the following formula, and the calculation results were kept to two decimal places.
This test adopted the method in Test Example 1 of technical section, mainly used leaf disc method to explore the effect on hatching of eggs of Panonychus citri by compounds 1-(S,S), 1-(S,R), 1-(R,R), 1-(R,S), 1′-(S,S), 1′-(S,R), 1′-(R,R), 1′-(R,S), compound 1, compound 1′, S-10, R-10, S-10′, R-10′, compound 10, compound 10′, compound 19-(S,S), 19-(S,R), 19-(R,R), 19-(R,S), 19′-(S,S), 19′-(S,R), 19′-(R,R), 19′-(R,S), compound 19, and compound 19′. The concentration of all compounds was 1 ppm.

Structure (SMILES) | inhibitory effect on the hatching of eggs of Panonychus citri (in words) | Hatching rate (%), Replicate 1 | Hatching rate (%), Replicate 2 | Hatching rate (%), Replicate 3 | Number of hatched larvae 5 days after insecticide delivery, Replicate 1 | Number of hatched larvae 5 days after insecticide delivery, Replicate 2 | Number of hatched larvae 5 days after insecticide delivery, Replicate 3 | also measured
CC(COc1ccc(Cl)cc1Cl)OS(=O)OCCF [1′-(S,R)] | good inhibitory effects | – | – | – | – | – | – | Hatching rate (%), Replicate 1 (listed as 1′-(S, R)): 0.00%; Hatching rate (%), Replicate 2 (listed as 1′-(S, R)): 0.00%; Hatching rate (%), Replicate 3 (listed as 1′-(S, R)): 0.00%; Number of hatched larvae 5 days after insecticide delivery, Replicate 1 (listed as 1′-(S, R)): 0; Number of hatched larvae 5 days after insecticide delivery, Replicate 2 (listed as 1′-(S, R)): 0; Number of hatched larvae 5 days after insecticide delivery, Replicate 3 (listed as 1′-(S, R)): 0
CCC(COc1ccc(Cl)cc1Cl)OS(=O)OCCF [19-(R,R)] | – | – | – | – | – | – | – | Hatching rate (%), Replicate 1 (listed as 19-(R, R)): 7.52%; Hatching rate (%), Replicate 2 (listed as 19-(R, R)): 8.41%; Hatching rate (%), Replicate 3 (listed as 19-(R, R)): 8.33%; Number of hatched larvae 5 days after insecticide delivery, Replicate 1 (listed as 19-(R, R)): 10; Number of hatched larvae 5 days after insecticide delivery, Replicate 2 (listed as 19-(R, R)): 9; Number of hatched larvae 5 days after insecticide delivery, Replicate 3 (listed as 19-(R, R)): 7
C[C@H](COS(=O)OCCF)Oc1ccc(Cl)cc1Cl (stereo partly drawn) [1-(R,R)] | good inhibitory effects | – | – | – | – | – | – | Hatching rate (%), Replicate 1 (listed as 1-(R, R)): 0.00%; Hatching rate (%), Replicate 2 (listed as 1-(R, R)): 0.00%; Hatching rate (%), Replicate 3 (listed as 1-(R, R)): 0.00%; Number of hatched larvae 5 days after insecticide delivery, Replicate 1 (listed as 1-(R, R)): 0; Number of hatched larvae 5 days after insecticide delivery, Replicate 2 (listed as 1-(R, R)): 0; Number of hatched larvae 5 days after insecticide delivery, Replicate 3 (listed as 1-(R, R)): 0
CCC(COS(=O)OCCF)Oc1ccc(Cl)cc1Cl (stereo not shown) [Compound 19′] | good inhibitory effects | 0.00% | 0.00% | 0.00% | 0 | 0 | 0 | –
CC(COc1ccc(Cl)cc1Cl)OS(=O)OCCF [1′-(S,S)] | – | – | – | – | – | – | – | Hatching rate (%), Replicate 1 (listed as 1′-(S, S)): 14.73%; Hatching rate (%), Replicate 2 (listed as 1′-(S, S)): 16.05%; Hatching rate (%), Replicate 3 (listed as 1′-(S, S)): 16.67%; Number of hatched larvae 5 days after insecticide delivery, Replicate 1 (listed as 1′-(S, S)): 19; Number of hatched larvae 5 days after insecticide delivery, Replicate 2 (listed as 1′-(S, S)): 13; Number of hatched larvae 5 days after insecticide delivery, Replicate 3 (listed as 1′-(S, S)): 18
CC[C@H](COc1ccc(Cl)cc1Cl)OS(=O)OCCF (stereo partly drawn) [19-(R,S)] | good inhibitory effects | 0.00% | 0.00% | 0.00% | 0 | 0 | 0 | –
CC[C@@H](COc1ccc(Cl)cc1Cl)OS(=O)OCCF (stereo partly drawn) [19-(S,R)] | good inhibitory effects | 0.00% | 0.00% | 0.00% | 0 | 0 | 0 | –
CC[C@H](COS(=O)OCCF)Oc1ccc(Cl)cc1Cl (stereo partly drawn) [19′-(R,S)] | – | 10.43% | 10.42% | 9.57% | 12 | 10 | 9 | –
CC(COc1ccc(Cl)cc1Cl)OS(=O)OCCF [1′-(R,S)] | good inhibitory effects | – | – | – | – | – | – | Hatching rate (%), Replicate 1 (listed as 1′-(R, S)): 0.00%; Hatching rate (%), Replicate 2 (listed as 1′-(R, S)): 0.00%; Hatching rate (%), Replicate 3 (listed as 1′-(R, S)): 0.00%; Number of hatched larvae 5 days after insecticide delivery, Replicate 1 (listed as 1′-(R, S)): 0; Number of hatched larvae 5 days after insecticide delivery, Replicate 2 (listed as 1′-(R, S)): 0; Number of hatched larvae 5 days after insecticide delivery, Replicate 3 (listed as 1′-(R, S)): 0
CC(C)(COS(=O)OCCF)Oc1ccc(Cl)cc1Cl (stereo not shown) [S-10′] | good inhibitory effects | 0.00% | 0.00% | 0.00% | 0 | 0 | 0 | –
